Measured values from US20250084416A1, “TARGETING OF XKR8 IN THERAPIES” (University of Pittsburgh - Of the Commonwealth System of …, priority 2022, published 2025).

Tests used:
[1] = tested on: mXkr8 mRNA; experiment: qRT-PCR of Xkr8 mRNA in cultured murine tumor cells (CT26, Panc02); type: cell-based; details: for Xkr8 mRNA expression: 24 h treatment
Protocol: (§1) To examine the effect of different chemotherapeutic agents on the expression level of Xkr8 mRNA, CT26, Panc02, PANC-1 or HT29 cells were treated with various concentrations of FuOXP, DOX or PTX. Twenty-four h later, cells were collected and subjected to qRT-PCR of mXkr8 or hXkr8 as detailed below.
(§2) To examine the impact of ActD treatment on the expression level of Xkr8 mRNA, CT26 or PANC-1 tumor cells were treated with FuOXP (10 μM) for 12 h followed by addition of ActD (2 μM). At 2 or 4 h following ActD treatment, cells were collected and subjected to qRT-PCR of Xkr8 mRNA as described below. In another study, cells were treated with NAC (2.5 mM) for 12 h followed by treatment with FuOXP, DOX or PTX for another 12 h. qRT-PCR of Xkr8 mRNA was then similarly performed.
(§3) Tumor tissues or cells collected from the above experiments were subjected to RNA extraction by TRIzol™. cDNA was generated from the purified RNA using QuantiTect Reverse Transcription Kit (Qiagen, MD, USA) according to the manufacturer's instructions. Quantitative real-time PCR was performed using SYBR Green Mix on a 7900 HT PCR instrument (Applied Biosystems, MA, USA). Relative target mRNA levels were analyzed using delta-delta-Ct calculations and normalized to GAPDH.

[2] = tested on: hXkr8 mRNA; experiment: qRT-PCR of Xkr8 mRNA in cultured human tumor cells (HT-29, PANC-1); type: cell-based; details: for Xkr8 mRNA expression: 24 h treatment
Protocol: as §1, §2, §3

[3] = tested on: hXkr8 protein; experiment: Western blot of hXkr8 protein in HT29 and PANC-1 cells; type: cell-based, human; details: PANC-1 cells; NAC 12 h then drug 12 h
Protocol: Analysis of hXkr8 protein level by Western blot: Cultured HT29 or PANC-1 cells received similar treatments as described above. Cells were then lysed with RIPA lysis buffer (Thermo Fisher Scientific, MA, USA) by gently shaking on ice for 30 min. After centrifugation at 12,300 RPM for 10 min, the supernatants were collected, and the concentrations of proteins were measured using Pierce BCA Protein Assay Kit (ThermoFisher Scientific, MA, USA). The protein samples were denatured by boiling for 5 min and loaded onto 10% SDS-PAGE gel for electrophoresis. The proteins in the gels were subsequently transferred onto PVDF membranes (Bio-Rad, CA, USA). The membranes were then incubated in blocking buffer (5% non-fat dry milk in TBST) for 1 h at RT, followed by incubation with anti-hXkr8 polyclonal antibody (ThermoFisher Scientific, MA, USA) in antibody dilution buffer (5% BSA in TBST, 1/2000 dilution) with gentle agitation overnight at 4° C. After washing with TBST for three times, the membranes were subsequently incubated with the secondary HRP-linked goat anti-rabbit IgG antibody (Cell Signaling Technology, MA, USA) for 1 h at RT. After another three washes with TBST, the membranes were incubated with Pierce™ ECL Western Blotting Substrate (ThermoFisher Scientific, MA, USA) for 1 min. Protein expression was normalized against β-Tubulin expression.

[4] = tested on: luciferase in MC38-Luc cells; experiment: In vitro luciferase gene knockdown; type: cell-based, murine; details: 1 h pretreatment prior to siLUC NP transfection
[5] = tested on: HUVECa and CT26 cells; experiment: Transwell co-culture transcytosis (HUVECa upper, CT26 lower chamber); type: cell-based; details: endocytosis inhibitor
Protocol: To explore a potential role of transcytosis in tumor targeting, a co-culture experiment with HUVECa and CT26 cells using a Transwell plate was conducted.

[6] = tested on: CT26 tumor cells; experiment: Surface PS on CT26 tumor cells and EVs (Annexin V flow); type: cell-based, murine; details: CT26 tumor cells in vitro
Protocol: Effect of Xkr8 knockdown on the PS expression levels of tumor cells and EVs following FuOXP treatment: CT26 cancer cells were first treated with siXkr8 NPs for 72 h and then treated with FuOXP/siXkr8-coloaded NPs for another 24 h. EVs were isolated from culture medium using gradient ultra-centrifugation according to a previously established protocol^48. Briefly, culture medium was collected and centrifuged for 20 min at 1,800 RPM at 4° C. to clear dead cells and cell debris. The supernatant was then transferred to a polycarbonate ultracentrifuge tube and centrifuged at 9,000 RPM for 35 min at 4° C. to collect larger EVs. The supernatant was centrifuged again at 30,000 RPM for 80 min at 4° C. and the pellet was resuspended in 100 μL of PBS for smaller EVs collection. The levels of surface PS on tumor cells and EVs were analyzed by flow using BV421-labeled Annexin V. For detection of EVs by flow cytometry, electronic “Height” (-H) parameter rather than the “Area” (-A) parameter was used to allow optimal signal detection.

COc1cccc2c1C(=O)c1c(O)c3c(c(O)c1C2=O)C[C@@](O)(C(=O)CO)C[C@@H]3O[C@H]1C[C@H](N)[C@H](O)[C@H](C)O1 [DOX, doxorubicin]
Xkr8 mRNA expression ([1]; CT26 cells): Induction
Xkr8 mRNA expression ([1]; Panc02 cells): Induction
Xkr8 mRNA expression ([2]; HT-29 cells): Induction
Xkr8 mRNA expression ([2]; PANC-1 cells): Induction

CC(=O)N[C@@H](CS)C(=O)O [NAC, N-acetylcysteine]
effect of pretreatment on Xkr8 protein induction by the 3 drugs [3]: partially attenuated
effect of pretreatment on Xkr8 mRNA induction by the 3 drugs ([1]; CT26 cells, NAC 12 h then drug 12 h): partially attenuated
effect of pretreatment on Xkr8 mRNA induction by the 3 drugs ([2]; PANC-1 cells, NAC 12 h then drug 12 h): partially attenuated

CC(=O)O[C@H]1C(=O)[C@@]2(C)[C@H]([C@H](OC(=O)c3ccccc3)[C@]3(O)C[C@H](OC(=O)[C@H](O)[C@@H](NC(=O)c4ccccc4)c4ccccc4)C(C)=C1C3(C)C)[C@]1(OC(C)=O)CO[C@@H]1C[C@@H]2O [PTX, paclitaxel]
Xkr8 mRNA expression ([1]; CT26 cells): Induction
Xkr8 mRNA expression ([1]; Panc02 cells): Induction
Xkr8 mRNA expression ([2]; HT-29 cells): Induction
Xkr8 mRNA expression ([2]; PANC-1 cells): Induction

N=C(N)NC(=O)c1nc(Cl)c(N)nc1N [amiloride]
efficiency of silence after inhibitor pretreatment [4]: drastically attenuated

CN(C)CCCN1c2ccccc2Sc2ccc(Cl)cc21 [chlorpromazine]
efficiency of silence after inhibitor pretreatment [4]: drastically attenuated

C=C1[C@@H](C)[C@H]2[C@H](Cc3ccccc3)NC(=O)[C@]23[C@H](OC(C)=O)/C=C/[C@@](C)(O)C(=O)[C@@H](C)C/C=C/[C@H]3[C@@H]1O [cytochalasin D]
efficiency of silence after inhibitor pretreatment [4]: drastically attenuated

O=C(N/N=C/c1ccc(O)c(O)c1)c1cc2ccccc2cc1O [dynasore]
effect on transcytosis-mediated transfection of CT26 cells [5]: significantly inhibited
efficiency of silence after inhibitor pretreatment [4]: drastically attenuated

CCCCC[C@@H](O)[C@H]1C(=O)O[C@H](C)[C@@H](O)/C=C/C=C/C=C/C=C/C=C(\C)[C@@H](O)C[C@H](O)C[C@H](O)C[C@H](O)C[C@H](O)C[C@H](O)C[C@@H]1O [filipin]
efficiency of silence after inhibitor pretreatment [4]: drastically attenuated

siXkr8: Murine Xkr8 siRNA, Seq ID No 1 and 2, siRNA ID 164623 (chain 1 GGCACAAAUUUUAUGCCUG; chain 2 CAGGCAUAAAAUUUGUGCC; RNA, backbone not given here; further chemistry not fully specified; listed as Mus musculus)
level of surface PS (Annexin V+ cells) [6]: almost abolished
